CC(=O)OC[C@@]1(C(=O)O)CC[C@]2(C)C(CCC3[C@@]4(C)CC[C@H](OC(C)=O)C(C)(C)C4CC[C@]32C)C1=O (stereo partly drawn) [(7), 3β,28-Diacetoxy-18-oxo-19,20,21,29,30-pentanorlupan-22-oic Acid]
melting point: 142 to 144 °C

From patent US7312356B2, “Medicament” (Cyclacel Limited, priority 2001, dated 2007)
